What was measured:
Experiment in all cases: relative viability (nuclei count vs DMSO), 5 days (fraction); higher = more cells survive
BEN = test system: BEN
Procedure, shortened: (§1)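 Lung cancer cell lines were seeded in 1536-well plates and dosed by pin tool the next day, with either a single drug or a fixed anchor-drug dose combined with five library-drug doses (not always all listed) spaced in √10 steps. Five days later, one step fixed the cells and stained their nuclei (final 0.05% Triton X-100, 1% formaldehyde, 1 ug/ml Hoechst), and nuclei were counted on 4× images. Relative viability is the nuclei count in treated wells divided by the count in vehicle wells, and each value is the median of duplicate plates.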

EKVX = test system: EKVX
Procedure, shortened: as §1

HARA = test system: HARA
Procedure, shortened: as §1

HCC-366 = test system: HCC-366
Procedure, shortened: as §1

HCC-827 = test system: HCC-827
Procedure, shortened: as §1

LOU-NH91 = test system: LOU-NH91
Procedure, shortened: as §1

NCI-H1355 = test system: NCI-H1355
Procedure, shortened: as §1

NCI-H1395 = test system: NCI-H1395
Procedure, shortened: as §1

NCI-H1437 = test system: NCI-H1437
Procedure, shortened: as §1

NCI-H1734 = test system: NCI-H1734
Procedure, shortened: as §1

NCI-H1792 = test system: NCI-H1792
Procedure, shortened: as §1

NCI-H1993 = test system: NCI-H1993
Procedure, shortened: as §1

NCI-H2009 = test system: NCI-H2009
Procedure, shortened: as §1

NCI-H2087 = test system: NCI-H2087
Procedure, shortened: as §1

NCI-H2170 = test system: NCI-H2170
Procedure, shortened: as §1

NCI-H2405 = test system: NCI-H2405
Procedure, shortened: as §1

NCI-H647 = test system: NCI-H647
Procedure, shortened: as §1

NCI-H661 = test system: NCI-H661
Procedure, shortened: as §1

SK-LU-1 = test system: SK-LU-1
Procedure, shortened: as §1

SK-MES-1 = test system: SK-MES-1
Procedure, shortened: as §1

## COc1cc2nccc(Oc3ccc(NC(=O)Nc4cc(C)on4)c(Cl)c3)c2cc1OC [Tivozanib] + Cc1nc(NC(=O)N2CCC[C@H]2C(N)=O)sc1-c1ccnc(C(C)(C)C(F)(F)F)c1 [Alpelisib] (partner 2 µM)
BEN; first compound 0.005 µM
  relative viability: 0.991
BEN; first compound 0.01581 µM
  relative viability: 1.04
BEN; first compound 0.05 µM
  relative viability: 1.03
BEN; first compound 0.5 µM
  relative viability: 1.05
EKVX; first compound 0.005 µM
  relative viability: 0.903
EKVX; first compound 0.01581 µM
  relative viability: 0.93
EKVX; first compound 0.05 µM
  relative viability: 0.958
EKVX; first compound 0.1581 µM
  relative viability: 0.888
EKVX; first compound 0.5 µM
  relative viability: 0.872
HARA; first compound 0.005 µM
  relative viability: 0.911
HARA; first compound 0.01581 µM
  relative viability: 0.838
HARA; first compound 0.05 µM
  relative viability: 0.908
HARA; first compound 0.1581 µM
  relative viability: 0.877
HARA; first compound 0.5 µM
  relative viability: 0.798
HCC-366; first compound 0.005 µM
  relative viability: 0.297
HCC-366; first compound 0.01581 µM
  relative viability: 0.448
HCC-366; first compound 0.05 µM
  relative viability: 0.381
HCC-366; first compound 0.1581 µM
  relative viability: 0.51
HCC-366; first compound 0.5 µM
  relative viability: 0.388
HCC-827; first compound 0.005 µM
  relative viability: 0.902
HCC-827; first compound 0.01581 µM
  relative viability: 0.992
HCC-827; first compound 0.05 µM
  relative viability: 1.04
HCC-827; first compound 0.1581 µM
  relative viability: 0.98
HCC-827; first compound 0.5 µM
  relative viability: 1.02
LOU-NH91; first compound 0.005 µM
  relative viability: 0.69
LOU-NH91; first compound 0.01581 µM
  relative viability: 0.698
LOU-NH91; first compound 0.05 µM
  relative viability: 0.778
LOU-NH91; first compound 0.1581 µM
  relative viability: 0.732
LOU-NH91; first compound 0.5 µM
  relative viability: 0.752
NCI-H1355; first compound 0.005 µM
  relative viability: 0.766
NCI-H1355; first compound 0.01581 µM
  relative viability: 0.693
NCI-H1355; first compound 0.05 µM
  relative viability: 0.887
NCI-H1355; first compound 0.5 µM
  relative viability: 0.882
NCI-H1395; first compound 0.005 µM
  relative viability: 0.951
NCI-H1395; first compound 0.01581 µM
  relative viability: 1.08
NCI-H1395; first compound 0.05 µM
  relative viability: 1.01
NCI-H1395; first compound 0.1581 µM
  relative viability: 1.05
NCI-H1395; first compound 0.5 µM
  relative viability: 0.91
NCI-H1437; first compound 0.005 µM
  relative viability: 1.02
NCI-H1437; first compound 0.01581 µM
  relative viability: 1
NCI-H1437; first compound 0.05 µM
  relative viability: 1
NCI-H1437; first compound 0.1581 µM
  relative viability: 0.943
NCI-H1437; first compound 0.5 µM
  relative viability: 0.959
NCI-H1734; first compound 0.005 µM
  relative viability: 0.656
NCI-H1734; first compound 0.01581 µM
  relative viability: 0.66
NCI-H1734; first compound 0.05 µM
  relative viability: 0.702
NCI-H1734; first compound 0.1581 µM
  relative viability: 0.536
NCI-H1734; first compound 0.5 µM
  relative viability: 0.727
NCI-H1792; first compound 0.005 µM
  relative viability: 0.728
NCI-H1792; first compound 0.01581 µM
  relative viability: 0.778
NCI-H1792; first compound 0.05 µM
  relative viability: 0.786
NCI-H1792; first compound 0.1581 µM
  relative viability: 0.847
NCI-H1792; first compound 0.5 µM
  relative viability: 0.812
NCI-H1993; first compound 0.005 µM
  relative viability: 0.657
NCI-H1993; first compound 0.01581 µM
  relative viability: 0.741
NCI-H1993; first compound 0.05 µM
  relative viability: 0.688
NCI-H1993; first compound 0.1581 µM
  relative viability: 0.688
NCI-H1993; first compound 0.5 µM
  relative viability: 0.695
NCI-H2009; first compound 0.005 µM
  relative viability: 1.16
NCI-H2009; first compound 0.01581 µM
  relative viability: 1.08
NCI-H2009; first compound 0.05 µM
  relative viability: 1.29
NCI-H2009; first compound 0.1581 µM
  relative viability: 1.22
NCI-H2009; first compound 0.5 µM
  relative viability: 1.19
NCI-H2087; first compound 0.005 µM
  relative viability: 1.04
NCI-H2087; first compound 0.01581 µM
  relative viability: 1.03
NCI-H2087; first compound 0.05 µM
  relative viability: 1.18
NCI-H2087; first compound 0.1581 µM
  relative viability: 0.886
NCI-H2087; first compound 0.5 µM
  relative viability: 1.04
NCI-H2170; first compound 0.005 µM
  relative viability: 0.885
NCI-H2170; first compound 0.01581 µM
  relative viability: 0.952
NCI-H2170; first compound 0.05 µM
  relative viability: 0.799
NCI-H2170; first compound 0.5 µM
  relative viability: 0.867
NCI-H2405; first compound 0.005 µM
  relative viability: 0.776
NCI-H2405; first compound 0.01581 µM
  relative viability: 0.878
NCI-H2405; first compound 0.05 µM
  relative viability: 0.823
NCI-H2405; first compound 0.1581 µM
  relative viability: 0.737
NCI-H2405; first compound 0.5 µM
  relative viability: 0.641
NCI-H647; first compound 0.005 µM
  relative viability: 1.22
NCI-H647; first compound 0.01581 µM
  relative viability: 1.17
NCI-H647; first compound 0.05 µM
  relative viability: 1.1
NCI-H647; first compound 0.1581 µM
  relative viability: 0.803
NCI-H647; first compound 0.5 µM
  relative viability: 0.958
NCI-H661; first compound 0.005 µM
  relative viability: 0.52
NCI-H661; first compound 0.01581 µM
  relative viability: 0.713
NCI-H661; first compound 0.05 µM
  relative viability: 0.609
NCI-H661; first compound 0.1581 µM
  relative viability: 0.302
NCI-H661; first compound 0.5 µM
  relative viability: 0.525
SK-LU-1; first compound 0.005 µM
  relative viability: 1.01
SK-LU-1; first compound 0.01581 µM
  relative viability: 1.01
SK-LU-1; first compound 0.05 µM
  relative viability: 1.12
SK-LU-1; first compound 0.1581 µM
  relative viability: 0.645
SK-LU-1; first compound 0.5 µM
  relative viability: 0.907
SK-MES-1; first compound 0.005 µM
  relative viability: 0.763
SK-MES-1; first compound 0.01581 µM
  relative viability: 1.08
SK-MES-1; first compound 0.05 µM
  relative viability: 0.876
SK-MES-1; first compound 0.1581 µM
  relative viability: 0.869
SK-MES-1; first compound 0.5 µM
  relative viability: 0.857

— the supplement of paper PMC10307832
